From paper PMC8991199, “Promiscuity mapping of the S100 protein family using a high-throughput holdup assay” (Scientific Reports, 2022)
“Also recorded” adds a separate entry of the source.

Assays:
Format in all cases: binding
S100P = target: T1, S100P (Homo sapiens, UniProt P25815); experiment: direct fluorescence polarization (FP), S100P; details: 50 nM labeled foldamer, 20 mM HEPES pH 7.5, 150 mM NaCl, 1 mM CaCl2, 0.5 mM TCEP, 0.01% Tween20, quadratic fit, mean ± SEM, three technical repeats, threshold 1 mM
T1 sequence (P25815 1-95): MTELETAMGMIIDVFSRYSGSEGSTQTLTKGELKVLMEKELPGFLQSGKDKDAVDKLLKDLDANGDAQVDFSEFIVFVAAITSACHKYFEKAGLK
From the text: (§1) HTP (and also low-throughput) measurements generally need to be validated by an orthogonal approach to eliminate experimental artifacts. […] In this assay, the association of the fluorescently labeled foldamer and the S100 protein of interest is monitored, through the change in polarization of the emitted light by the fluorophore upon the binding event. In direct FP, the presence of the fluorophore might change the binding affinity of some foldamers. […] Nevertheless, we assumed that the fluorophore would affect all foldamers that target the same binding site to the same degree, because the foldamer scaffold is rigid.
(§2) Briefly, S100 proteins were cloned into a modified pET15b vector with a TEV protease cleavable N-terminal His6-tag and expressed in Escherichia coli BL21 (DE3) cells, followed by Ni^2+-affinity chromatography. For HU assay, S100 proteins were further purified by either hydrophobic interaction chromatography or ion exchange chromatography without the cleavage of the N-terminal His6-tag applying standard conditions. For direct FP measurements, the N-terminal His6-tag was cleaved, and the S100 proteins were purified by hydrophobic interaction chromatography, ion exchange chromatography or size exclusion chromatography. The quality of the recombinant proteins was checked by SDS-PAGE analysis in all cases. The concentration of the recombinant S100 proteins was determined by UV spectrophotometry using the absorbance of Tyr and Trp residues.
(§3) In direct fluorescence polarization assays, S100 proteins were diluted in a buffer containing 50 nM labeled foldamer, 20 mM HEPES pH 7.5, 150 mM NaCl, 1 mM CaCl2, 0.5 mM TCEP and 0.01% Tween20. The dilution series (50 µl) were divided into three technical repeats and transferred (15 µl) to a 384-well microplate. In competitive fluorescence polarization assays, the buffer applied in direct measurements was supplemented with the S100 protein of interest to reach a saturation of 60–80%. This mixture was titrated with the competitor (i.e. the unlabeled peptide). Fluorescence polarization was measured in 8 different S100 concentrations (one of which contained no S100 protein) on a Synergy H4 plate reader using 485 ± 20 nm and 528 ± 20 nm band-pass filters for excitation and emission, respectively. The Kd values were obtained by fitting the data from the FP measurements with the python-based ProFit software using quadratic and competitive binding equation for direct and competitive FP, respectively. The detection threshold was based on two parameters. First, we rejected all fitted dissociation constants above 1 mM.

S100A11 = target: T2, S100A11 (Homo sapiens, UniProt P31949); experiment: direct fluorescence polarization (FP), S100A11; details: S100A11, 50 nM labeled foldamer, 20 mM HEPES pH 7.5, 150 mM NaCl, 1 mM CaCl2, 0.5 mM TCEP, 0.01% Tween20, quadratic fit, mean ± SEM, three technical repeats, threshold 1 mM
T2 sequence (P31949 1-105): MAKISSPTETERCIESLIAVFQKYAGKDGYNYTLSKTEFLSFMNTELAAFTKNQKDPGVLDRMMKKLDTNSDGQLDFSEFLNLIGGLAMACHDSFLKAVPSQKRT
Method: (§4) HTP (and also low-throughput) measurements generally need to be validated by an orthogonal approach to eliminate experimental artifacts. […] This way, we chose WL, IF, WW, YF, IL, VL, TW, RF, RR, TI, TM, and after resynthesizing with a fluorescent label at the C-terminus (Figs. S15–S26, Table S1), the S100ome was tested against the labeled foldamers by direct fluorescence polarization (FP) (Fig. 3A). In this assay, the association of the fluorescently labeled foldamer and the S100 protein of interest is monitored, through the change in polarization of the emitted light by the fluorophore upon the binding event. In direct FP, the presence of the fluorophore might change the binding affinity of some foldamers. […] Nevertheless, we assumed that the fluorophore would affect all foldamers that target the same binding site to the same degree, because the foldamer scaffold is rigid. Defining the threshold of detection at the dissociation constant of 1 mM, we identified 87 interactions between the selected foldamer fragments and the S100ome out of 220 possible interactions (Table 1, Fig. S4-14).
as §2, §3

S100Z = target: T3, S100Z (Homo sapiens, UniProt Q8WXG8); experiment: direct fluorescence polarization (FP), S100Z; details: 50 nM labeled foldamer, 20 mM HEPES pH 7.5, 150 mM NaCl, 1 mM CaCl2, 0.5 mM TCEP, 0.01% Tween20, quadratic fit, mean ± SEM, three technical repeats, threshold 1 mM
T3 sequence (Q8WXG8 1-99): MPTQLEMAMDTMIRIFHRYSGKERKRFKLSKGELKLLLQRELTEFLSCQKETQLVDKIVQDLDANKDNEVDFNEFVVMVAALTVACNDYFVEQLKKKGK
From the text: as §1, §2, §3

S100A5 = target: T4, S100A5 (Homo sapiens, UniProt P33763); experiment: direct fluorescence polarization (FP), S100A5; details: for Kd: direct FP, S100A5, 50 nM labeled foldamer, 20 mM HEPES pH 7.5, 150 mM NaCl, 1 mM CaCl2, 0.5 mM TCEP, 0.01% Tween20, quadratic fit, mean ± SEM, three technical repeats, threshold 1 mM; for binding to S100A5 in the absence of Ca2+: Fig. 3C middle panels, direct FP in the presence of EDTA
T4 sequence (P33763 1-92): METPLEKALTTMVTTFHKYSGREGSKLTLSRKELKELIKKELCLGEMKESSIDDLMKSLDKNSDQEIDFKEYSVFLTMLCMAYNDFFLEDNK
Method: as §4
To ensure that foldamer fragments bind to the hydrophobic binding groove of S100 proteins, which opens upon binding of calcium ions, we performed FP experiments on a selected S100 protein, S100A5, in the presence of EDTA and TRTK12, an S100-binding peptide of 12 amino acids. […] Based on the similarity and redundancy among the S100 family, it can be assumed that all S100 proteins bind the members of the H14 foldamer library through their hydrophobic binding pocket in a Ca^2+-dependent manner.
as §2, §3

S100A13 = target: T5, S100A13 (Homo sapiens, UniProt Q99584); experiment: direct fluorescence polarization (FP), S100A13; details: for Kd: S100A13, 50 nM labeled foldamer, 20 mM HEPES pH 7.5, 150 mM NaCl, 1 mM CaCl2, 0.5 mM TCEP, 0.01% Tween20, quadratic fit, mean ± SEM, three technical repeats, threshold 1 mM
T5 sequence (Q99584 1-98): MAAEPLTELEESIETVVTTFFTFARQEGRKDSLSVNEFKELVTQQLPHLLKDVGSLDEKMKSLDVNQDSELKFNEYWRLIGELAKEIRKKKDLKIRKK
Method: as §4, §2, §3

S100A3 = target: T6, S100A3 (Homo sapiens, UniProt P33764); experiment: direct fluorescence polarization (FP), S100A3; details: S100A3, 50 nM labeled foldamer, 20 mM HEPES pH 7.5, 150 mM NaCl, 1 mM CaCl2, 0.5 mM TCEP, 0.01% Tween20, quadratic fit, mean ± SEM, three technical repeats, threshold 1 mM
T6 sequence (P33764 1-101): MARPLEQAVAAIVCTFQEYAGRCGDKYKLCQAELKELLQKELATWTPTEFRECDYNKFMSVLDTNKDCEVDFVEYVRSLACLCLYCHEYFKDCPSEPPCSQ
Method: as §4, §2, §3

Row | SMILES | Kd (S100P) | Kd (S100A11) | Kd (S100Z) | Kd (S100A5) | Kd (S100A13) | Kd (S100A3) | binding to S100A5 in the absence of Ca2+ (S100A5) | increase of the polarization upon adding S100A13 (S100A13; Fig. 3A right panel)
1 | N=C(N)NCCC[C@@H](CC(=O)N[C@H]1CCCC[C@@H]1C(=O)NCC(=O)N[C@@H](CCCCNC(=O)c1ccc2c(c1)C1(OC2=O)c2ccc(O)cc2Oc2cc(O)ccc21)C(N)=O)NC(=O)[C@H]1CCCC[C@@H]1NC(=O)[C@H]1CCCC[C@@H]1NC(=O)C[C@H](CCCNC(=N)N)NC(=O)[C@H]1CCCC[C@@H]1N [fRR] | > 1000 µM | > 1000 µM | > 1000 µM | 45 ± 0.81 µM | > 1000 µM | > 1000 µM |  | 
2 | N=C(N)NCCC[C@@H](CC(=O)N[C@H]1CCCC[C@@H]1C(=O)N[C@H]1CCCC[C@@H]1C(=O)N[C@H](CC(=O)N[C@H]1CCCC[C@@H]1C(=O)NCC(=O)N[C@@H](CCCCNC(=O)c1ccc2c(c1)C1(OC2=O)c2ccc(O)cc2Oc2cc(O)ccc21)C(N)=O)Cc1ccccc1)NC(=O)[C@H]1CCCC[C@@H]1N [fRF] | 190 ± 17 µM | 998 ± 217 µM | 890 ± 120 µM | 46 ± 1.2 µM | > 1000 µM | > 1000 µM |  | 
3 | NC(=O)[C@H](CCCCNC(=O)c1ccc2c(c1)C1(OC2=O)c2ccc(O)cc2Oc2cc(O)ccc21)NC(=O)CNC(=O)[C@H]1CCCC[C@@H]1NC(=O)C[C@H](Cc1c[nH]c2ccccc12)NC(=O)[C@H]1CCCC[C@@H]1NC(=O)[C@H]1CCCC[C@@H]1NC(=O)C[C@H](Cc1c[nH]c2ccccc12)NC(=O)[C@H]1CCCC[C@@H]1N [fWW] | 190 ± 6.9 µM | > 1000 µM | > 1000 µM | 77 ± 2.8 µM | > 1000 µM | 310 ± 21 µM |  | 
4 | CC(C)C[C@@H](CC(=O)N[C@H]1CCCC[C@@H]1C(=O)NCC(=O)N[C@@H](CCCCNC(=O)c1ccc2c(c1)C1(OC2=O)c2ccc(O)cc2Oc2cc(O)ccc21)C(N)=O)NC(=O)[C@H]1CCCC[C@@H]1NC(=O)[C@H]1CCCC[C@@H]1NC(=O)C[C@H](Cc1c[nH]c2ccccc12)NC(=O)[C@H]1CCCC[C@@H]1N [fWL] | 75 ± 5.8 µM | > 1000 µM | > 1000 µM | 14 ± 0.55 µM | > 1000 µM | > 1000 µM | loss of binding event; also recorded: unable to interact | 
5 | CSCC[C@@H](CC(=O)N[C@H]1CCCC[C@@H]1C(=O)NCC(=O)N[C@@H](CCCCNC(=O)c1ccc2c(c1)C1(OC2=O)c2ccc(O)cc2Oc2cc(O)ccc21)C(N)=O)NC(=O)[C@H]1CCCC[C@@H]1NC(=O)[C@H]1CCCC[C@@H]1NC(=O)C[C@@H](NC(=O)[C@H]1CCCC[C@@H]1N)[C@@H](C)O [fTM] | > 1000 µM | > 1000 µM | > 1000 µM | 204 ± 9.2 µM | > 1000 µM | > 1000 µM |  | 
6 | CC[C@H](C)[C@@H](CC(=O)N[C@H]1CCCC[C@@H]1C(=O)N[C@H]1CCCC[C@@H]1C(=O)N[C@H](CC(=O)N[C@H]1CCCC[C@@H]1C(=O)NCC(=O)N[C@@H](CCCCNC(=O)c1ccc2c(c1)C1(OC2=O)c2ccc(O)cc2Oc2cc(O)ccc21)C(N)=O)Cc1ccccc1)NC(=O)[C@H]1CCCC[C@@H]1N [fIF] | 140 ± 5.8 µM | 280 ± 15 µM | 480 ± 31 µM | 27 ± 0.53 µM | > 1000 µM | 180 ± 8.4 µM | loss of binding event; also recorded: unable to interact | 
7 | NC(=O)[C@H](CCCCNC(=O)c1ccc2c(c1)C1(OC2=O)c2ccc(O)cc2Oc2cc(O)ccc21)NC(=O)CNC(=O)[C@H]1CCCC[C@@H]1NC(=O)C[C@H](Cc1ccccc1)NC(=O)[C@H]1CCCC[C@@H]1NC(=O)[C@H]1CCCC[C@@H]1NC(=O)C[C@H](Cc1ccc(O)cc1)NC(=O)[C@H]1CCCC[C@@H]1N [fYF] | 79 ± 5.7 µM | > 1000 µM | > 1000 µM | 32 ± 1 µM | > 1000 µM | > 1000 µM |  | only a minor linear increase of the polarization
8 | CC[C@H](C)[C@@H](CC(=O)N[C@H]1CCCC[C@@H]1C(=O)NCC(=O)N[C@@H](CCCCNC(=O)c1ccc2c(c1)C1(OC2=O)c2ccc(O)cc2Oc2cc(O)ccc21)C(N)=O)NC(=O)[C@H]1CCCC[C@@H]1NC(=O)[C@H]1CCCC[C@@H]1NC(=O)C[C@@H](NC(=O)[C@H]1CCCC[C@@H]1N)[C@@H](C)O [fTI] | > 1000 µM | > 1000 µM | > 1000 µM | 270 ± 14 µM | > 1000 µM | > 1000 µM |  | 
9 | C[C@@H](O)[C@@H](CC(=O)N[C@H]1CCCC[C@@H]1C(=O)N[C@H]1CCCC[C@@H]1C(=O)N[C@H](CC(=O)N[C@H]1CCCC[C@@H]1C(=O)NCC(=O)N[C@@H](CCCCNC(=O)c1ccc2c(c1)C1(OC2=O)c2ccc(O)cc2Oc2cc(O)ccc21)C(N)=O)Cc1c[nH]c2ccccc12)NC(=O)[C@H]1CCCC[C@@H]1N [fTW] |  | 570 ± 68 µM |  | 62 ± 1.4 µM | > 1000 µM | > 1000 µM |  | 
